Laboratory results: patent US5496823A, “Pharmaceutical composition for increasing bladder capacity” (Hoechst Japan Limited, priority 1991, dated 1996)

Columns and labels:
[1] = test system: urination-reflexing constriction of the bladder; test: urination-reflexing constriction of the bladder (cystometrogram) in anesthetized rats, intravenous administration; assay type: in vivo, SD male rats; settings: for Bladder capacity, First / Bladder capacity, Second / Urination constriction pressure, First / Urination constriction pressure, Second / Urination threshold pressure, First / Urination threshold pressure, Second: relative level, pre-drug value = 1, mean ± SD
Excerpt: (§1) Effects of test drugs on urination-reflexing constriction of the bladder in anesthetized rats were examined according to Morikawa, et al. [in Oyo Yakuri/Pharmacometrics, Vol. 37, No. 1, pages 27-37, (1989)]. In the following examples, the bladder capacity designates the time from a urination to the next urination (urination interval), urination threshold pressure designates intracystic pressure) immediately prior to initiation of urination constriction and urination constriction pressure designates maximum internal pressure on urination constriction. Figures in the below table indicate relative level from the first and second reactions after administration of a drug taking the measured value before administration of the drug as 1 for bladder capacity (min.), urination threshold pressure (mmHg) and urination constriction pressure (mmHg), respectively.
(§2) Groups of 4-6 SD male rats were used and each animal was subjected to laparotomy under anesthesia with urethan, ligature around the ureter and then exposure of the bladder, on the top of which was perforated with a small opening, through which a cannula with a three-way step cock was inserted.
(§3) One of the three-way stop cock was connected to a syringe for continuously introducing a physiological saline solution and another to a pressure transducer for the measurement of intrasystic pressure.
(§4) A physiological saline solution was introduced into the bladder at a rate of 55 μl per min., and changes in intracystic pressure were recorded until urination. From the intracystic pressure curve were determined bladder capacity, urination threshold pressure and urination constriction pressure to examine the action of the introduction of physiological saline solution.
The drug was given via a polyethylene tube inserted into the femoral vein. […]

[2] = test system: urination-reflexing constriction of the bladder; test: urination-reflexing constriction of the bladder (cystometrogram) in anesthetized rats, intraduodenal administration; assay type: in vivo, SD male rats; settings: relative level, pre-drug value = 1, mean ± SD
Excerpt: as §1, §2, §3, §4
Groups of 4-5 SD male rats were fasted overnight and subjected to the same experimental procedures as in Example 1. The drug was given via a polyethylene tube inserted into the duodenum.

[3] = Japanese Patent Publication No. 33120/1977; cited from earlier work

With `CCOCn1cnc2c1c(=O)n(CCCCC(C)(C)O)c(=O)n2C` [Compound VI, 3,7-dihydro-3-methyl-1-(5-hydroxy-5-methylhexyl)-7-ethoxymethyl-1H-purine-2,6-dione] the “Bladder capacity, First” value ([1]; Table 3, 20 mg/kg i.v., n=5) was 1.8 ± 0.9, the “Bladder capacity, Second” value ([1]; Table 3, 20 mg/kg i.v., n=5) was 1.4 ± 1.0 and the “Urination constriction pressure, First” value ([1]; Table 3, 20 mg/kg i.v., n=5) was 1.0 ± 0.1. The “Urination constriction pressure, Second” value ([1]; Table 3, 20 mg/kg i.v., n=5) was 1.0 ± 0.1, the “Urination threshold pressure, First” value ([1]; Table 3, 20 mg/kg i.v., n=5) was 1.3 ± 0.9 and the “Urination threshold pressure, Second” value ([1]; Table 3, 20 mg/kg i.v., n=5) was 1.0 ± 0.4.

In the case of `CCCn1cnc2c1c(=O)n(CCCCC(C)=O)c(=O)n2C` [propentofylline, 3,7-dihydro-3-methyl-1-(5-oxohexyl)-7-propyl-1H-purine-2,6-dione], the “Bladder capacity, First” value ([1]; 0.2 mg/kg i.v., n=5) is reported as 1.2 ± 0.8, the “Bladder capacity, Second” value ([1]; 0.2 mg/kg i.v., n=5) is reported as 1.1 ± 0.4 and the “Urination constriction pressure, First” value ([1]; 0.2 mg/kg i.v., n=5) is reported as 1.0 ± 0.1. The “Urination constriction pressure, Second” value ([1]; 0.2 mg/kg i.v., n=5) was 0.9 ± 0.1, the “Urination threshold pressure, First” value ([1]; 0.2 mg/kg i.v., n=5) was 1.2 ± 0.5 and the “Urination threshold pressure, Second” value ([1]; 0.2 mg/kg i.v., n=5) was 1.0 ± 0.3. For the same compound, the “Bladder capacity, First” value ([1]; 1 mg/kg i.v., n=5) was 2.5 ± 1.9, the “Bladder capacity, Second” value ([1]; 1 mg/kg i.v., n=5) was 0.7 ± 0.2 and the “Urination constriction pressure, First” value ([1]; 1 mg/kg i.v., n=5) was 1.0 ± 0.1. The “Urination constriction pressure, Second” value ([1]; 1 mg/kg i.v., n=5) was 1.1 ± 0.2, the “Urination threshold pressure, First” value ([1]; 1 mg/kg i.v., n=5) was 1.1 ± 0.1 and the “Urination threshold pressure, Second” value ([1]; 1 mg/kg i.v., n=5) was 1.1 ± 0.2. For the same compound, the “Bladder capacity, Second” value ([1]; 5 mg/kg i.v., n=6) was 1.0 ± 0.5, the “Urination constriction pressure, First” value ([1]; 5 mg/kg i.v., n=6) was 1.0 ± 0.1 and the “Urination constriction pressure, Second” value ([1]; 5 mg/kg i.v., n=6) was 1.0 ± 0.2. For the same compound, the “Urination threshold pressure, First” value ([1]; 5 mg/kg i.v., n=6) was 1.5 ± 0.4, the “Urination threshold pressure, Second” value ([1]; 5 mg/kg i.v., n=6) was 1.2 ± 0.6 and the “Bladder capacity, First” value ([1]; 5 mg/kg i.v., n=6, P < 0.05) was 4.1 ± 2.6. The “Bladder capacity, Second” value ([1]; 10 mg/kg i.v., n=5) was 0.9 ± 0.5, the “Urination constriction pressure, First” value ([1]; 10 mg/kg i.v., n=5) was 1.0 ± 0.2 and the “Urination constriction pressure, Second” value ([1]; 10 mg/kg i.v., n=5) was 1.0 ± 0.2. The “Urination threshold pressure, Second” value ([1]; 10 mg/kg i.v., n=5) was 1.1 ± 0.3, the “Urination threshold pressure, First” value ([1]; 10 mg/kg i.v., n=5, P < 0.01) was 2.1 ± 0.7 and the “Bladder capacity, First” value ([1]; 10 mg/kg i.v., n=5, P < 0.05) was 3.5 ± 1.1. The “Bladder capacity, Second” value ([1]; 20 mg/kg i.v., n=5) was 1.0 ± 0.8, the “Urination constriction pressure, First” value ([1]; 20 mg/kg i.v., n=5) was 1.0 ± 0.1 and the “Urination constriction pressure, Second” value ([1]; 20 mg/kg i.v., n=5) was 1.0 ± 0.1. For the same compound, the “Urination threshold pressure, Second” value ([1]; 20 mg/kg i.v., n=5) was 1.5 ± 0.8, the “Urination threshold pressure, First” value ([1]; 20 mg/kg i.v., n=5, P < 0.01) was 2.5 ± 0.8 and the “Bladder capacity, First” value ([1]; 20 mg/kg i.v., n=5, P < 0.05) was 4.9 ± 3.2. The “constrictive force of the bladder (in words)” value ([1]; animal experiments, summary) was “almost no influence upon constrictive force of the bladder”, the “substantial bladder capacity / volume (in words)” value ([1]; animal experiments, summary) was “increased substantial bladder capacity” and the “urination intervals (in words)” value ([1]; animal experiments, summary) was “prolonged urination intervals”. For the same compound, the “urination threshold pressure (in words)” value ([1]; animal experiments, summary) was “increased urination threshold pressure”, the “Bladder capacity, First” value ([2]; 3 mg/kg intraduodenal, n=4) was 1.1 ± 0.2 and the “Bladder capacity, Second” value ([2]; 3 mg/kg intraduodenal, n=4) was 1.1 ± 0.3. The “Urination constriction pressure, First” value ([2]; 3 mg/kg intraduodenal, n=4) was 1.1 ± 0.1, the “Urination constriction pressure, Second” value ([2]; 3 mg/kg intraduodenal, n=4) was 1.1 ± 0.2 and the “Urination threshold pressure, First” value ([2]; 3 mg/kg intraduodenal, n=4) was 1.0 ± 0.2. For the same compound, the “Urination threshold pressure, Second” value ([2]; 3 mg/kg intraduodenal, n=4) was 1.0 ± 0.2, the “Bladder capacity, First” value ([2]; 10 mg/kg intraduodenal, n=4) was 2.7 ± 1.8 and the “Bladder capacity, Second” value ([2]; 10 mg/kg intraduodenal, n=4) was 1.0 ± 1.0. The “Urination constriction pressure, First” value ([2]; 10 mg/kg intraduodenal, n=4) was 1.0 ± 0.1, the “Urination constriction pressure, Second” value ([2]; 10 mg/kg intraduodenal, n=4) was 0.9 ± 0.1 and the “Urination threshold pressure, First” value ([2]; 10 mg/kg intraduodenal, n=4) was 1.3 ± 0.3. For the same compound, the “Urination threshold pressure, Second” value ([2]; 10 mg/kg intraduodenal, n=4) was 1.3 ± 0.5, the “Bladder capacity, First” value ([2]; 30 mg/kg intraduodenal, n=5) was 2.7 ± 1.6 and the “Bladder capacity, Second” value ([2]; 30 mg/kg intraduodenal, n=5) was 0.8 ± 0.6. For the same compound, the “Urination constriction pressure, First” value ([2]; 30 mg/kg intraduodenal, n=5) was 0.9 ± 0.1, the “Urination constriction pressure, Second” value ([2]; 30 mg/kg intraduodenal, n=5) was 1.0 ± 0.1 and the “Urination threshold pressure, First” value ([2]; 30 mg/kg intraduodenal, n=5) was 1.6 ± 0.9. The “Urination threshold pressure, Second” value ([2]; 30 mg/kg intraduodenal, n=5) was 1.4 ± 0.9, the “Bladder capacity, Second” value ([2]; 50 mg/kg intraduodenal, n=5) was 0.6 ± 0.2 and the “Urination constriction pressure, First” value ([2]; 50 mg/kg intraduodenal, n=5) was 1.0 ± 0.1. The “Urination constriction pressure, Second” value ([2]; 50 mg/kg intraduodenal, n=5) was 1.0, the “Urination threshold pressure, Second” value ([2]; 50 mg/kg intraduodenal, n=5) was 1.4 ± 0.7 and the “Bladder capacity, First” value ([2]; 50 mg/kg intraduodenal, n=5, P < 0.01) was 4.3 ± 2.1. For the same compound, the “Urination threshold pressure, First” value ([2]; 50 mg/kg intraduodenal, n=5, P < 0.05) was 1.7 ± 0.6, the “action on vertebral artery (in words)” value [3] was “specifically active on vertebral artery” and the “blood flow during cerebral circulation (in words)” value [3] was “increase blood flow highly selectively during cerebral circulation”.
